Measured values as given in ChEMBL document CHEMBL2029307, “Identification of aryl dihydrouracil derivatives as palm initiation site inhibitors of HCV NS5B polymerase” (Bioorg Med Chem Lett, 2012).
Values belong to the molecule of their own block, whether it stands above or below them.

Columns and labels:
[1] = system: Hepatitis C virus; test: Inhibition of HCV genotype 1b patient isolate recombinant NS5B polymerase expressed in Escherichia coli DH5alpha assessed as inhibition of [3H]UTP incorporation after 2 hrs by scintillation counting; parameters: species or system Hepatitis C virus subtype 1b
[2] = Inhibition of HCV genotype 1b BK recombinant NS5B polymerase expressed in Escherichia coli DH5alpha assessed as inhibition of [3H]UTP incorporation after 2 hrs by scintillation counting; parameters: species or system Hepatitis C virus (isolate BK)
[3] = system: Hepatitis C virus subtype 1a; test: Resistance ratio of IC50 for HCV genotype 1a NS5B polymerase C316Y mutant to IC50 for HCV genotype 1a wildtype NS5B polymerase
[4] = system: Hepatitis C virus subtype 1a; test: Resistance ratio of IC50 for HCV genotype 1a NS5B polymerase T448Y mutant to IC50 for HCV genotype 1a wildtype NS5B polymerase
[5] = Inhibition of HCV genotype 1a H77 recombinant NS5B polymerase expressed in Escherichia coli DH5alpha assessed as inhibition of [3H]UTP incorporation after 2 hrs by scintillation counting; parameters: species or system Hepatitis C virus (isolate H77)
[6] = system: Hepatitis C virus subtype 1a; test: Resistance ratio of IC50 for HCV genotype 1a NS5B polymerase P495A mutant to IC50 for HCV genotype 1a wildtype NS5B polymerase
[7] = system: Hepatitis C virus subtype 1a; test: Resistance ratio of IC50 for HCV genotype 1a NS5B polymerase M423T mutant to IC50 for HCV genotype 1a wildtype NS5B polymerase
[8] = Cytotoxicity against human HuH7 cells by MTT assay; format: cell-based, Huh-7; conditions: read-out: TD50 (the source's name)
[9] = Inhibition of HCV genotype 2a NS5B polymerase assessed as inhibition of [3H]UTP incorporation after 2 hrs by scintillation counting; parameters: species or system Hepatitis C virus subtype 2a
[10] = system: Hepatitis C virus subtype 1a; test: Resistance ratio of IC50 for HCV genotype 1a NS5B polymerase M414T mutant to IC50 for HCV genotype 1a wildtype NS5B polymerase
[11] = Inhibition of HCV genotype 3a NS5B polymerase assessed as inhibition of [3H]UTP incorporation after 2 hrs by scintillation counting; parameters: species or system Hepatitis C virus subtype 3a
[12] = Inhibition of HCV genotype 2b NS5B polymerase assessed as inhibition of [3H]UTP incorporation after 2 hrs by scintillation counting; parameters: species or system Hepatitis C virus subtype 2b
[13] = system: Hepatitis C virus; test: Antiviral activity against HCV genotype 1b infected in HuH7 cells by SEAP reporter gene assay; format: functional, organism-based, Hepacivirus hominis; conditions: Huh-7

Structure (SMILES): COc1cc(N(C)C)c(N2CCC(=O)NC2=O)cc1C(C)(C)C
IC50 [1]: 6.7 µM

Structure (SMILES): COc1cc(N)c(N2CCC(=O)NC2=O)cc1C(C)(C)C
IC50 [1]: 1.7 µM

Structure (SMILES): COc1c(Br)cc(N2CCC(=O)NC2=O)cc1C(C)(C)C
IC50 [1]: 7.4 µM

Structure (SMILES): COc1cc([N+](=O)[O-])c(N2CCC(=O)NC2=O)cc1C(C)(C)C
IC50 [2]: 0.36 µM
Ratio IC50 [3]: > 100
Ratio IC50 [4]: 41
IC50 [5]: 0.58 µM
Ratio IC50 [6]: 5
Ratio IC50 [7]: 5
CC50 [8]: > 50 µM
IC50 [9]: > 200 µM
Ratio IC50 [10]: 24
IC50 [1]: 0.4 µM
IC50 [11]: > 200 µM
IC50 [12]: > 200 µM
EC50 [13]: 0.84 µM

Structure (SMILES): COc1cc(NC(C)=O)c(N2CCC(=O)NC2=O)cc1C(C)(C)C
IC50 [1]: 6.5 µM

Structure (SMILES): COc1c(Br)cc(N2CCC(=O)N(C)C2=O)cc1C(C)(C)C
IC50 [1]: > 200 µM

Structure (SMILES): COc1ccc(N2CCC(=O)NC2=O)cc1C(C)(C)C
IC50 [1]: 6.4 µM

Next, values leading:

IC50 [1]: 7.6 µM
Structure (SMILES): CC(C)(C)c1cc(N2CCC(=O)NC2=O)ccc1O

IC50 [1]: 47 µM
Structure (SMILES): CC(C)(C)c1cccc(N2CCC(=O)NC2=O)c1

IC50 [1]: > 200 µM
Structure (SMILES): O=C1CCN(c2cccc(C(F)(F)F)c2)C(=O)N1
